{"source": "patent US20240156931A1", "about": "“COLLECTION AND USES OF TISSUE RESIDENT INTERSTITIAL EXTRACELLULAR VESICLES” (priority 2022, published 2024)", "key": {"eGFP-4T1 cells": {"system": "eGFP-4T1 cells", "experiment": "Mitophagy induction / mitochondrial EV fluorescent labelling (CCCP perturbation)", "format": "cell-based, murine", "from_the_text": "To further verify that PINK1-associated EVs contained mitochondrial components via a orthogonal methods, we performed a functional perturbation in vitro to induce the cellular release of mitophagy-associated EVs. We treated sub-confluent eGFP-4T1 cells with a mitochondrial depolarization protonophore carbonyl cyanide m-chlorophenyl hydrazone (CCCP) (Villa et al., 2017) and added a permanent fluorescent label for active mitochondrial membranes with MitoTracker Deep Red (MTDR) (Chazotte, 2011). After 48 h, the cells reached 70% confluency and were harvested by differential ultracentrifugation.\nTwo 4T1-eGFP cell cultures were plated at 10^6 cells/ml. Untreated cells were left to grow for 5 days. Treated cells were stimulated with 10 nM of carbonyl cyanide 3-chlorophenylhydrazone (CCCP) (Sigma) and left to grow for 5 days. The supernatants were collected and EVs fractions were isolated by differential ultracentrifugation. The resulting 100K EVs were probed for anti-ARIH1 (Santa Cruz) by Western blot.\nTwo 4T1-eGFP-Puro cell cultures were plated at 10^6 cells/ml. Untreated cells were left to grow for 48 h. Treated cells were stimulated with 10 nM and 10 μM of CCCP and left to grow for 48 h. At 48 h, 50 nM of MitoTracker Deep Red (MTDR) (Thermo Fisher) was added to the media and left to sit overnight in the cell incubator. The supernatants were collected and EVs were isolated by differential ultracentrifugation. EVs subpopulations were plated at 30 μl and scanned for peak emission fluorescent intensity fluorescence at […] (absorbance/emission) for GFP and 635/675 nm (absorbance/emission) for MTDR on a Tecan safire2 plate reader."}, "[1]": {"system": "Ovarian Cancer tumor cells", "experiment": "EVs released by ovarian cancer cells undergoing cisplatin treatment (Western blot, RPPA)", "format": "cell-based", "experimental": "A) Ovarian Cancer tumor cells are treated with pulses of cisplatin, a common ovarian cancer therapeutic. EVs released by the cancer cells undergoing cisplatin treatment are isolated by differential ultracentrifugation and analyzed via Western Blot, mass spectrometry, and reverse phase protein array in order to determine potential pathways and markers that are indicative of cancer resistance. […] Additionally, the subpopulations are present with typical EV related tetraspanin markers.\nIn an embodiment, RPPA assays previously used for tissue lysates can be adapted for use with EV subpopulations."}, "irradiated tumor": {"system": "irradiated tumor", "details": "mice; cited from earlier work"}}, "note": "“Also recorded” adds a separate entry of the source."}
{"smiles": "N#CC(C#N)=NNc1cccc(Cl)c1", "note": "[CCCP, carbonyl cyanide m-chlorophenyl hydrazone]", "values": [{"measurement": "MitoTracker Deep Red (MTDR) in 100K EVs", "setting": "eGFP-4T1 cells; MTDR fluorescence normalized to GFP by EV subpopulation", "result": "increased release of 100K EVs containing active mitochondrial molecules; also recorded: increasing levels"}, {"measurement": "ARIH1 presence in the 100K EVs", "setting": "eGFP-4T1 cells; compared to no treatment, Western blot", "result": "induced ARIH1 presence"}, {"measurement": "release of CD81+/PINK1+ 100K EVs", "setting": "eGFP-4T1 cells; increasing CCCP up to 10 μM (cytotoxic level), 48 h, Western blot", "result": "release of increased Parkin-independent mitophagy-containing 100K EVs; also recorded: increased release of CD81+/PINK1+ 100K EVs in a dose dependent manner; also recorded: increased export of PINK1 and MitoTracker"}]}
{"smiles": "N.N.[Cl][Pt][Cl]", "note": "[cisplatin]", "values": [{"measurement": "RPPA ratio pre to post treatment, EGFR (pY1068) and Bax pathways", "setting": "[1]; 2K EV population", "result": "greatly increased"}, {"measurement": "RPPA ratio pre to post treatment, Akt", "setting": "[1]; 10K EV population", "result": 11, "unit": "fold"}, {"measurement": "RPPA pathways altered after treatment", "setting": "[1]; 100K EV population", "result": "few pathways were altered"}, {"measurement": "LC3-I/II (autophagy) and PD-L1 in EV subpopulations, Western blot", "setting": "[1]; post-treatment EVs compared to pre-treatment", "result": "upregulating"}]}
{"smiles": "CCN(CC)CCCC(C)Nc1ccnc2cc(Cl)ccc12", "note": "(centres unmarked) [chloroquine]", "values": [{"measurement": "response to radiation therapy", "setting": "irradiated tumor", "result": "improves response"}]}
